Assay results as given in ChEMBL document CHEMBL1124011, “Retinobenzoic acids. 1. Structure-activity relationships of aromatic amides with retinoidal activity” (1988).
Active and inactive are the calls of the source. No cut-off for these calls is given here.

What was measured:
[1] = test system: Panel leukemia (Carcinoma cell lines); assay: Effective dose for differentiation -inducing activity against human promyelocytic leukemia cells; assay type: functional; conditions: read-out: ED50 (the source's name)
[2] = Ratio of the ED50 of compound to that of ED50 of retinoic acid, expressed as relative activity; assay type: functional
[3] = test system: Panel leukemia (Carcinoma cell lines); assay: Effective dose for differentiation-inducing activity against human promyelocytic leukemia cells; assay type: functional, cell-based

SMILES	EC50 [1] [nM]	Ratio [2]	ED50 [3]
O=C(O)c1ccc(C(=O)Nc2cccc(C3CCCCC3)c2)cc1	> 1000	< 0.0001	
CC1(C)CCOc2c(Cl)cc(C(=O)Nc3ccc(C(=O)O)cc3)cc21	75	0.037	
CC(C)c1ccc(NC(=O)c2ccc(C(=O)O)cc2)c(C(C)C)c1			inactive
CC(C)(C)c1cccc(C(=O)Nc2ccc(C(=O)O)cc2)c1	> 10000	< 0.001	
CC(C)c1ccc(NC(=O)c2ccc(C(=O)O)cc2)cc1C(C)C	2.1	1.4	
O=C(O)c1ccc(C(=O)Nc2cccc3ccccc23)cc1			inactive
CC(C)c1ccc(NC(=O)c2ccc(C(=O)O)cc2)cc1	910	9.8	
CC(C)c1ccccc1NC(=O)c1ccc(C(=O)O)cc1			inactive
CC1(C)CCOc2ccc(NC(=O)c3ccc(C(=O)O)cc3)cc21	> 1000	< 0.0001	
O=C(O)c1ccc(C(=O)Nc2cccc3c2CCCC3)cc1			inactive
O=C(O)c1ccc(C(=O)Nc2ccccc2)cc1			inactive
Cc1cccc(NC(=O)c2ccc(C(=O)O)cc2)c1			inactive
CC(C)(C)c1cc(C(C)(C)C)c(NC(=O)c2ccc(C(=O)O)cc2)c(C(C)(C)C)c1			inactive
CC1(C)CCS(=O)(=O)c2ccc(C(=O)Nc3ccc(C(=O)O)cc3)cc21			inactive
CC(C)(C)c1ccc(NC(=O)c2ccc(C(=O)O)cc2)cc1	> 10000	< 0.001	
O=C(O)c1ccc(C(=O)Nc2cccc(-c3ccccc3)c2)cc1			inactive
CCc1cccc(NC(=O)c2ccc(C(=O)O)cc2)c1			inactive
CC1(C)CCC(C)(C)c2c(NC(=O)c3ccc(C(=O)O)cc3)cccc21	> 1000	< 0.0001	
CC1(C)CCC(C)(C)c2cc(NC(=O)c3ccc(C(=O)O)cc3)c(Br)cc21	> 1000	< 0.0001	
O=C(O)c1ccc(C(=O)Nc2ccc3ccccc3c2)cc1		3.5	inactive
CC(C)c1ccc(C(C)C)c(NC(=O)c2ccc(C(=O)O)cc2)c1			inactive
CC(C)(C)c1ccc(C(=O)Nc2ccc(C(=O)O)cc2)cc1	> 10000	< 0.001	
CN(C)c1cccc(NC(=O)c2ccc(C(=O)O)cc2)c1			inactive
CC(C)c1cccc(C(C)C)c1NC(=O)c1ccc(C(=O)O)cc1			inactive
O=C(O)c1ccc(NC(=O)c2ccccc2)cc1			inactive
CC(C)(C)c1cc(C(=O)Nc2ccc(C(=O)O)cc2)cc(C(C)(C)C)c1	48	0.056	
O=C(O)c1ccc(C(=O)Nc2cccc(Br)c2)cc1			inactive

Now from value to compound, other results behind:

EC50 [1] [nM]	SMILES	Ratio [2]	ED50 [3]
> 1000	CN(C(=O)c1ccc(C(=O)O)cc1)c1ccc2c(c1)C(C)(C)CCC2(C)C	< 0.0001	
560	CC1(C)CCC(C)(C)c2cc(NC(=O)c3ccc(C(=O)O)cc3)c(N)cc21	0.011	
0.79	CC1(C)CCC(C)(C)c2cc(NC(=O)c3ccc(C(=O)O)cc3)ccc21 [TAMIBAROTENE]	3.5	
> 10000	O=C(O)c1ccc(C(=O)Nc2ccc3c(c2)C2CCC3CC2)cc1	< 0.001	
2.4	CC1=C(/C=C/C(C)=C/C=C/C(C)=C/C(=O)O)C(C)(C)CCC1 [TRETINOIN]	1	
73	CC1(C)CCSc2ccc(NC(=O)c3ccc(C(=O)O)cc3)cc21	0.051	
> 1000	CN(C(=O)c1ccc2c(c1)C(C)(C)CCC2(C)C)c1ccc(C(=O)O)cc1	< 0.0001	
700	CC(C)(C)c1cccc(NC(=O)c2ccc(C(=O)O)cc2)c1	3.2	
350	Cc1cc2c(cc1NC(=O)c1ccc(C(=O)O)cc1)C(C)(C)CCC2(C)C	0.006	
68	CC(C)c1ccc(C(=O)Nc2ccc(C(=O)O)cc2)cc1C(C)C	0.04	
260	CCc1ccc(NC(=O)c2ccc(C(=O)O)cc2)cc1CC	0.0077	
36	CC(C)(C)c1cc(NC(=O)c2ccc(C(=O)O)cc2)cc(C(C)(C)C)c1	0.15	
38	CC(C)c1cc(NC(=O)c2ccc(C(=O)O)cc2)cc(C(C)C)c1	0.042	
0.34	CC1(C)CCC(C)(C)c2cc(C(=O)Nc3ccc(C(=O)O)cc3)ccc21	7.2	
800	CC1(C)CCOc2ccc(C(=O)Nc3ccc(C(=O)O)cc3)cc21	0.0035	
68	CC12CCC(C)(CC1)c1cc(NC(=O)c3ccc(C(=O)O)cc3)ccc12	0.059	
> 10000	CC1(C)CCC(C)(C)c2cc([N+](=O)[O-])c(NC(=O)c3ccc(C(=O)O)cc3)cc21	< 0.001	
680	CC(C)c1cccc(NC(=O)c2ccc(C(=O)O)cc2)c1	1.3	
